Assay results reported in ChEMBL document CHEMBL1764984 (J Med Chem, 2011).
In brackets after ≈: the same amount, converted by molar mass.

Experiments:
[1] = molecular target: Mitogen-activated protein kinase 11 (Homo sapiens, UniProt Q15759); assay: Inhibition of P38beta at 10 uM
[2] = molecular target: T1, Epithelial discoidin domain-containing receptor 1 (Homo sapiens, UniProt Q08345); assay: Inhibition of DDR1 at 10 uM
[3] = molecular target: Cyclin-G-associated kinase (Homo sapiens) (UniProt O14976); assay: Inhibition of GAK at 10 uM
[4] = molecular target: Mitogen-activated protein kinase 8 (Homo sapiens) (UniProt P45983); assay: Inhibition of JNK1 at 10 uM
[5] = molecular target: Mitogen-activated protein kinase 9 (Homo sapiens) (UniProt P45984); assay: Inhibition of JNK2 at 10 uM
[6] = molecular target: Serine/threonine-protein kinase NLK (Homo sapiens) (UniProt Q9UBE8); assay: Inhibition of NLK at 10 uM
[7] = molecular target: T2, Ribosomal protein S6 kinase alpha-3 (Homo sapiens, UniProt P51812); assay: Inhibition of RSK2 at 10 uM
[8] = molecular target: Ribosomal protein S6 kinase alpha-4 (Homo sapiens, UniProt O75676); assay: Inhibition of RSK4 at 10 uM
[9] = molecular target: T3, Atypical kinase COQ8A, mitochondrial (Homo sapiens, UniProt Q8NI60); assay: Inhibition of ADCK3
[10] = molecular target: T1, Epithelial discoidin domain-containing receptor 1; assay: Inhibition of DDR1
[11] = molecular target: Cyclin-G-associated kinase (Homo sapiens, UniProt O14976); assay: Inhibition of GAK
[12] = molecular target: T2, Ribosomal protein S6 kinase alpha-3; assay: Inhibition of RSK2
[13] = molecular target: Serine/threonine-protein kinase 36 (Homo sapiens, UniProt Q9NRP7); assay: Inhibition of STK36
[14] = Aqueous solubility of the compound in phosphate buffer at pH 6.5; format: physicochemical
[15] = Permeability of the compound from apical to basolateral side of human Caco2 cells at 10 uM after 21 days; format: ADME, cell-based; settings: Caco-2, read-out: permeability
[16] = Permeability of the compound from basolateral to apical side of human Caco2 cells at 10 uM after 21 days; format: ADME, cell-based; settings: Caco-2, read-out: permeability
Rattus norvegicus [17] = assay: Inhibition of LPS-induced TNFalpha production in rat serum at 3 mg/kg, po administered 30 mins before LPS challenge measured after […] by ELISA; format: functional
Rattus norvegicus [18] = assay: Inhibition of LPS-induced IL-6 production in po dosed rat serum administered 30 mins before LPS challenge measured after […] by ELISA; format: functional, organism-based
Rattus norvegicus [19] = assay: Inhibition of TNF-alpha-induced IL-6 production in po dosed rat plasma administered 30 mins before TNFalpha challenge measured after 2 hrs by ELISA; format: functional, organism-based
Rattus norvegicus [20] = assay: Analgesic activity in po dosed rat inflammatory yeast hyperalgesia model assessed as increase in tolerance to pressure; format: functional, organism-based
[21] = Plasma protein binding in Hanover-Wistar rat by untrafiltration method; format: ADME, cell-free; settings: read-out: PPB (converted)
[22] = Plasma protein binding in cynomolgus monkey by untrafiltration method; format: ADME, cell-free, Macaca fascicularis; settings: read-out: PPB (converted)
[23] = Tmax in Hanover-Wistar rat at 5 mg/kg, po; format: ADME, organism-based; parameters: dose 5 mg/kg, route oral; settings: in vivo
[24] = Cmax in Hanover-Wistar rat at 5 mg/kg, po; format: ADME, organism-based; parameters: dose 5 mg/kg, route oral; settings: in vivo
[25] = Half life in Hanover-Wistar rat at 5 mg/kg, po; format: ADME, organism-based; parameters: dose 5 mg/kg, route oral; settings: in vivo
[26] = AUC (0 to last) in Hanover-Wistar rat at 5 mg/kg, po after 24 hrs; format: ADME, organism-based; parameters: dose 5 mg/kg, route oral, time 0 - last; settings: plasma
[27] = Oral bioavailability in Hanover-Wistar rat at 5 mg/kg; format: ADME, organism-based; settings: in vivo
[28] = Clearance in Hanover-Wistar rat at 5 mg/kg, iv; format: ADME, organism-based; parameters: dose 5 mg/kg, route intravenous; settings: in vivo
[29] = Volume of distribution at steady state in Hanover-Wistar rat at 5 mg/kg, iv; format: ADME, organism-based; parameters: dose 5 mg/kg, route intravenous; settings: in vivo, read-out: Vdss
[30] = Tmax in cynomolgus monkey at 5 mg/kg, po; format: ADME, organism-based, Macaca fascicularis; parameters: dose 5 mg/kg, route oral; settings: in vivo
[31] = Cmax in cynomolgus monkey at 5 mg/kg, po; format: ADME, organism-based, Macaca fascicularis; parameters: dose 5 mg/kg, route oral; settings: in vivo
[32] = Half life in cynomolgus monkey at 5 mg/kg, po; format: ADME, organism-based, Macaca fascicularis; parameters: dose 5 mg/kg, route oral; settings: in vivo
[33] = AUC (0 to last) in cynomolgus monkey at 5 mg/kg, po after 72 hrs; format: ADME, organism-based, Macaca fascicularis; parameters: dose 5 mg/kg, route oral, time 0 - last; settings: plasma
[34] = Oral bioavailability in cynomolgus monkey at 5 mg/kg; format: ADME, organism-based, Macaca fascicularis; settings: in vivo
[35] = Clearance in cynomolgus monkey at 5 mg/kg, iv; format: ADME, organism-based, Macaca fascicularis; parameters: dose 5 mg/kg, route intravenous; settings: in vivo
[36] = Volume of distribution at steady state in cynomolgus monkey at 5 mg/kg, iv; format: ADME, organism-based, Macaca fascicularis; parameters: dose 5 mg/kg, route intravenous; settings: in vivo, read-out: Vdss
[37] = Tmax in Beagle dog at 5 mg/kg, po; format: ADME, organism-based, Canis lupus familiaris; parameters: dose 5 mg/kg, route oral; settings: in vivo
[38] = Cmax in Beagle dog at 5 mg/kg, po; format: ADME, organism-based, Canis lupus familiaris; parameters: dose 5 mg/kg, route oral; settings: in vivo
[39] = Half life in Beagle dog at 5 mg/kg, po; format: ADME, organism-based, Canis lupus familiaris; parameters: dose 5 mg/kg, route oral; settings: in vivo
[40] = AUC (0 to last) in Beagle dog at 5 mg/kg, po; format: ADME, organism-based, Canis lupus familiaris; parameters: dose 5 mg/kg, route oral, time 0 - last; settings: plasma
[41] = Oral bioavailability in Beagle dog at 5 mg/kg; format: ADME, organism-based, Canis lupus familiaris; settings: in vivo
[42] = Clearance in Beagle dog at 5 mg/kg, iv; format: ADME, organism-based, Canis lupus familiaris; parameters: dose 5 mg/kg, route intravenous; settings: in vivo
[43] = Volume of distribution at steady state in Beagle dog at 5 mg/kg, iv; format: ADME, organism-based, Canis lupus familiaris; parameters: dose 5 mg/kg, route intravenous; settings: in vivo, read-out: Vdss
Cytochrome P450 1A2 = Cytochrome P450 1A2 (Homo sapiens, UniProt P05177); assay: Inhibition of human CYP1A2; format: ADME
Cytochrome P450 2C9 = Cytochrome P450 2C9 (Homo sapiens, UniProt P11712); assay: Inhibition of human CYP2C9; format: ADME
Cytochrome P450 2C19 = Cytochrome P450 2C19 (Homo sapiens, UniProt P33261); assay: Inhibition of human CYP2C19; format: ADME
Cytochrome P450 2D6 = Cytochrome P450 2D6 (Homo sapiens, UniProt P10635); assay: Inhibition of human CYP2D6; format: ADME
Cytochrome P450 3A4 = Cytochrome P450 3A4 (Homo sapiens, UniProt P08684); assay: Inhibition of human CYP3A4; format: ADME
[44] = molecular target: T3, Atypical kinase COQ8A, mitochondrial; settings: 10 uM
Description: Inhibition of ADCK3 at 10 uM

[45] = molecular target: Casein kinase I isoform epsilon (Homo sapiens, UniProt P49674); settings: 10 uM
Description: Inhibition of CSNK1epsilon at 10 uM

[46] = molecular target: Mitogen-activated protein kinase 10 (Homo sapiens, UniProt P53779); settings: 10 uM
Description: Inhibition of JNK3 at 10 uM

[47] = molecular target: Serine/threonine-protein kinase 36 (Homo sapiens) (UniProt Q9NRP7); settings: 10 uM
Sequence of Serine/threonine-protein kinase 36 (Homo sapiens) (Q9NRP7 whole entry): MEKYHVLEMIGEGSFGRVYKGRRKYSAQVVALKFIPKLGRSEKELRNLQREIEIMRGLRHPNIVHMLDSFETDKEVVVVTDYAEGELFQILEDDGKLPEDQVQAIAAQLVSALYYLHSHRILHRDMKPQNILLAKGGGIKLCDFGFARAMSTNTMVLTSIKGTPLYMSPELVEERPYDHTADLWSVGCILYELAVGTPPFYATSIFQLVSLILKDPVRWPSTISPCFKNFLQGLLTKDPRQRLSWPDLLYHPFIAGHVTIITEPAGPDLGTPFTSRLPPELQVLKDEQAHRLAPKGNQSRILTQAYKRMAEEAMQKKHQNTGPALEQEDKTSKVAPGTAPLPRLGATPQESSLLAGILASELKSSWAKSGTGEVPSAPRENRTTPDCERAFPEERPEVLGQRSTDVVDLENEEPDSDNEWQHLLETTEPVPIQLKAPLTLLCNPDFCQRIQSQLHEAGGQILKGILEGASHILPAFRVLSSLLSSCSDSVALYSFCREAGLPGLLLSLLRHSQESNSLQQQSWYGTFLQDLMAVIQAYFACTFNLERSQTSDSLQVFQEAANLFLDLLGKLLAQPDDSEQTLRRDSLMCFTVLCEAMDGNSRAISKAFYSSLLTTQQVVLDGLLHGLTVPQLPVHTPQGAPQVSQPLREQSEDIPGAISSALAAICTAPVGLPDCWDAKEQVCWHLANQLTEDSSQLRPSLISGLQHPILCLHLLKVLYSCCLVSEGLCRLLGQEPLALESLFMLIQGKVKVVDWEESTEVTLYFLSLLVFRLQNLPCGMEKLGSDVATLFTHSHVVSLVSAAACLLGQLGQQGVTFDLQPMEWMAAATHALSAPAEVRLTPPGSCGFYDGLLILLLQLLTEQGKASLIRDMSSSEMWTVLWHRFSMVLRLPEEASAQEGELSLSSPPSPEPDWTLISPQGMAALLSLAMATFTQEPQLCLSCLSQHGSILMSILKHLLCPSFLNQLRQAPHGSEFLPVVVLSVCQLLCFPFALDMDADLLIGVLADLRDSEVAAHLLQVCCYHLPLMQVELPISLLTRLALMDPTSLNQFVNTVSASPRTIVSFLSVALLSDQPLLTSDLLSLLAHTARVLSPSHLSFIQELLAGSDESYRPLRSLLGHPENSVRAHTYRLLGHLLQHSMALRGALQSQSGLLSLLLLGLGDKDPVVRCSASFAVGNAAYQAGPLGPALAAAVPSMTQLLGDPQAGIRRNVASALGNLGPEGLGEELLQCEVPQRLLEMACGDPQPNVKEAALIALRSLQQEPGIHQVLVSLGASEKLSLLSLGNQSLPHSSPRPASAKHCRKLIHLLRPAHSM
Description: Inhibition of STK36 at 10 uM

T1 sequence (Q08345 whole entry, the tested form may be a part): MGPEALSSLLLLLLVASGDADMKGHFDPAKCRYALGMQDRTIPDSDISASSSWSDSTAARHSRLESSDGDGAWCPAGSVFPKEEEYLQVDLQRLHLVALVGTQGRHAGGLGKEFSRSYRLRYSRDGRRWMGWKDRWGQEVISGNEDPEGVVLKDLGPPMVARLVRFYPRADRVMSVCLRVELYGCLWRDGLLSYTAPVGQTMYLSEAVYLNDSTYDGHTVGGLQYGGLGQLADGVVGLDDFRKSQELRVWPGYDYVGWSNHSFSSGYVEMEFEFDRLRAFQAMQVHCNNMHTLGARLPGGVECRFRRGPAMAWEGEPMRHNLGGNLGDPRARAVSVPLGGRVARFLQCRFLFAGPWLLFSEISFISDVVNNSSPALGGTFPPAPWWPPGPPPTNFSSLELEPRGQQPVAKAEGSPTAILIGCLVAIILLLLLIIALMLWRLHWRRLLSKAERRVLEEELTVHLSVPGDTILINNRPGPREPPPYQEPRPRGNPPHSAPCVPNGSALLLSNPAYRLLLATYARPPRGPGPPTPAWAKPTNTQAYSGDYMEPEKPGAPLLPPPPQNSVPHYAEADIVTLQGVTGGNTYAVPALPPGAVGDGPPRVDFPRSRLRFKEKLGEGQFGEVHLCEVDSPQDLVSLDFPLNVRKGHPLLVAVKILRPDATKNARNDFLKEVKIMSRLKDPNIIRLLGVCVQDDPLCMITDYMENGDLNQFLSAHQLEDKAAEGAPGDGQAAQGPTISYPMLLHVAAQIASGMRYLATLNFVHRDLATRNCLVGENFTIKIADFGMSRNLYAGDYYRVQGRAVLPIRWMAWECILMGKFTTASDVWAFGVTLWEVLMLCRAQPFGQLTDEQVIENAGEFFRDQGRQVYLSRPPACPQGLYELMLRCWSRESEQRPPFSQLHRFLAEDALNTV
T2 sequence (P51812 whole entry): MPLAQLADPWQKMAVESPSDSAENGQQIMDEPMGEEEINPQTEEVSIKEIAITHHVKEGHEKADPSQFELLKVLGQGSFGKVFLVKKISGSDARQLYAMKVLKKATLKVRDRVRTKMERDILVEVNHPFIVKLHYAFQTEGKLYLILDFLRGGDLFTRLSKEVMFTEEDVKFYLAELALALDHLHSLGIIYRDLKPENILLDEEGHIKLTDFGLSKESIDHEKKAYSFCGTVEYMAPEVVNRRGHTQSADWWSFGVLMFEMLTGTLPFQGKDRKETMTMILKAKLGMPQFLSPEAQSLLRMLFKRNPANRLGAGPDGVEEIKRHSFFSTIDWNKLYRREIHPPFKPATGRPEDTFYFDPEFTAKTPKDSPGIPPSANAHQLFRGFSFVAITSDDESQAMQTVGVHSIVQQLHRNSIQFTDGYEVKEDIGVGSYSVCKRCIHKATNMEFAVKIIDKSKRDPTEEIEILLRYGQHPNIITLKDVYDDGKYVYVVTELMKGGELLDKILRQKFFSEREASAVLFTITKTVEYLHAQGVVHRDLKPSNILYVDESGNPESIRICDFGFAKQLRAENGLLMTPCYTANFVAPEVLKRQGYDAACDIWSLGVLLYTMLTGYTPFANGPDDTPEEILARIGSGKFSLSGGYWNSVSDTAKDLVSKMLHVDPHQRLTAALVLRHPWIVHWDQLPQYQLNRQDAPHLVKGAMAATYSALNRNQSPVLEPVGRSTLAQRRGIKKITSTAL
Sequence of Serine/threonine-protein kinase NLK (Homo sapiens) (Q9UBE8 whole entry): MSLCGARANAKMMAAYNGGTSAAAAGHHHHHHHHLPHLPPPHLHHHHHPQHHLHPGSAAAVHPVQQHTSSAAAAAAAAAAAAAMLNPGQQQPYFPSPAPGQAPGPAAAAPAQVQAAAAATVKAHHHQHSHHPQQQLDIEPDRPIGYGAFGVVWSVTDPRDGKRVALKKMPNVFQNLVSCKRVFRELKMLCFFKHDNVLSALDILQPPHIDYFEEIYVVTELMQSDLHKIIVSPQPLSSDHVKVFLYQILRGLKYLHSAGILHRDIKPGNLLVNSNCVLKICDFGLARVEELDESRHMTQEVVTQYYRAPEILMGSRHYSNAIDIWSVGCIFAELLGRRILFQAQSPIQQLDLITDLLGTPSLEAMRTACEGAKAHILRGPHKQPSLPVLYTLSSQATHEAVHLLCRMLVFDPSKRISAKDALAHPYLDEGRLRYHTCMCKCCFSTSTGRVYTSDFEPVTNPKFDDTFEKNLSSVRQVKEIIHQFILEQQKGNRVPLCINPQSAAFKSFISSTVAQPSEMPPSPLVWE
Sequence of Serine/threonine-protein kinase 36 (Q9NRP7 whole entry): as the sequence (Q9NRP7 whole entry) above
Sequence of Cytochrome P450 2D6 (P10635 whole entry): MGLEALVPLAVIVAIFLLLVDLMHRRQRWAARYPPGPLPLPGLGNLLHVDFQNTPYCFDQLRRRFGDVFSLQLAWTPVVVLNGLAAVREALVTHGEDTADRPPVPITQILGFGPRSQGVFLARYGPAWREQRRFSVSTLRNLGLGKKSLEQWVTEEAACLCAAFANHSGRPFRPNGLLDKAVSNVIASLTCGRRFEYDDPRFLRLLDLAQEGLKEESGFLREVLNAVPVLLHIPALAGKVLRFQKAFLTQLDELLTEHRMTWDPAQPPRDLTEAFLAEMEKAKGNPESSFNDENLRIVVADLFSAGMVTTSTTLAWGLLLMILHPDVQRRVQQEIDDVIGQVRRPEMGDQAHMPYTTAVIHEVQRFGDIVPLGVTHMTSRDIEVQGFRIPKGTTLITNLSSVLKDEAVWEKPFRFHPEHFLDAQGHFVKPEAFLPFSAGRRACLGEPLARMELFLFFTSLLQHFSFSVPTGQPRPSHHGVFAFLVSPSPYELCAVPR
Sequence of Mitogen-activated protein kinase 8 (Homo sapiens) (P45983 whole entry): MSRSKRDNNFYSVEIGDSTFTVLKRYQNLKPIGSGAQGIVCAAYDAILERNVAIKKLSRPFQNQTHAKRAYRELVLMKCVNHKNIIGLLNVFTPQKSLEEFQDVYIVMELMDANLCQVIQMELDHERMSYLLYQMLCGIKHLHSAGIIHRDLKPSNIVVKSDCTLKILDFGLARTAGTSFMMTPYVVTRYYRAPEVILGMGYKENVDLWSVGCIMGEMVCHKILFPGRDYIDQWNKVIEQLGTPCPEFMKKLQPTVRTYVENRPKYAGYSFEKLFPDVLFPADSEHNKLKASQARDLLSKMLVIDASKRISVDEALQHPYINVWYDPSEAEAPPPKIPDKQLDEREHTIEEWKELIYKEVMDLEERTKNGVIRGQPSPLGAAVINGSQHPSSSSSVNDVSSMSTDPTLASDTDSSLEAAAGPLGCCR
Sequence of Mitogen-activated protein kinase 11 (Q15759 whole entry, the tested form may be a part): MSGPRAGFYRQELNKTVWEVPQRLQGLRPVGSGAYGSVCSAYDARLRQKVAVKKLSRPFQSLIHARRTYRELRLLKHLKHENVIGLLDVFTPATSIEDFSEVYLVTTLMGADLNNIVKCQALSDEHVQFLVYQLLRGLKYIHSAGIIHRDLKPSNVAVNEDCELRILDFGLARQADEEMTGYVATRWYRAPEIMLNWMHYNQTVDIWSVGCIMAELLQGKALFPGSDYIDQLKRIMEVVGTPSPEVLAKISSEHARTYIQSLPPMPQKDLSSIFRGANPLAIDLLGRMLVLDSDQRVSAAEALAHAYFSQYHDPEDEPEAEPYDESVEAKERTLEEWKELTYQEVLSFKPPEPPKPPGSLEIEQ

For `Cn1c(=O)c(Oc2ccc(F)cc2F)cc2cnc(NC(CCO)CCO)nc21` [PAMAPIMOD], the inhibition [1] was greater than 85%, the inhibition [2] was greater than 85% and the inhibition [3] was greater than 85%. The inhibition [4] was greater than 85%, the inhibition [5] was greater than 85% and the inhibition [6] was greater than 85%. It also gave an inhibition [7] greater than 85%, an inhibition [8] greater than 85% and a Kd [9] greater than 1000 nM. The Kd [10] was greater than 1000 nM, the Kd [11] was greater than 1000 nM and the Kd [12] was 300 nM. The Kd [13] was greater than 1000 nM, the solubility [14] was 170 µg/mL (≈ 418 µM) and the Papp A→B at 10 µM [15] was 2.74 ×10⁻⁶ cm/s. It also gave a Papp B→A at 10 µM [16] of 22.6 ×10⁻⁶ cm/s, an inhibition in vivo at 3 mg/kg (Rattus norvegicus [17]) of 77% and an EC50 (Rattus norvegicus [18]) of 50 nM. It also gave an ED50 (Rattus norvegicus [18]; po) of 0.1 mg/kg, an EC50 (Rattus norvegicus [19]) of 270 nM and an ED50 (Rattus norvegicus [19]; po) of 1.1 mg/kg. For the same molecule, the Activity (Rattus norvegicus [20]) was “Dose-dependent effect”, the EC50 (Rattus norvegicus [20]) was 4.3 µM and the ED50 (Rattus norvegicus [20]; po) was 20.4 mg/kg. The fraction unbound [21] was 0.171, the fraction unbound [22] was 0.146 and the Tmax [23] was 30 min. The Cmax [24] was 1340 ng/mL, the half-life [25] was 242 min and the AUC(0-t) at 24 h [26] was 3130 ng·h/mL. It also gave a bioavailability [27] of 80.1%, a clearance [28] of 21 mL/min/kg and a Vd [29] of 3.56 L/kg. For the same molecule, the Tmax [30] was 1.5 h, the Cmax [31] was 1860 ng/mL and the half-life [32] was 828 min. For the same molecule, the AUC(0-t) at 72 h [33] was 9410 ng·h/mL, the bioavailability [34] was greater than 100% and the clearance [35] was 10.8 mL/min/kg. The Vd [36] was 20.6 L/kg, the Tmax [37] was 40.2 min and the Cmax [38] was 1380 ng/mL. It also gave a half-life [39] of 551 min, an AUC(0-t) [40] of 5220 ng·h/mL and a bioavailability [41] of 78.2%. It also gave a clearance [42] of 12.5 mL/min/kg, a Vd [43] of 12.7 L/kg and an IC50 (Cytochrome P450 1A2) greater than 29 µM. For the same molecule, the IC50 (Cytochrome P450 2C9) was greater than 29 µM, the IC50 (Cytochrome P450 2C19) was greater than 29 µM and the IC50 (Cytochrome P450 2D6) was greater than 29 µM. For the same molecule, the IC50 (Cytochrome P450 3A4) was greater than 29 µM, the inhibition [44] was greater than 85% and the inhibition [45] was greater than 85%. For the same molecule, the inhibition [46] was greater than 85% and the inhibition [47] was greater than 85%.
